The text below walks through data of US8455523B2, “Compositions and methods for treating hyperlipidemias” (The Research Foundation of State University of New York, priority 2010, dated 2013).

Series [1] deals with hyperlipidemic bonnet macaques. The series can be described thus: MTP inhibitor with or without pioglitazone or lovastatin in western diet fed bonnet macaques. It counts as in vivo, bonnet macaque monkeys. The settings on record: for plasma cholesterol: then MTP inhibitor one month ± Pioglitazone or Lovastatin; for Hepatic cholesterol, total and free: biopsies. The procedure:
FIG. 14. Bonnet Macaque monkeys fed ad libitum WD diet for 40 days and were administered MTPi, Lovastatin, (Lovas) or Pioglitazone (Pio) everyday for one month. A-D* represent comparisons to the MTPi alone group. E-I* represent comparisons between baseline and post biopsies.
Eleven (11) Male bonnet macaque monkeys were fed western diet for 40 days and treated with MTP inhibitor (BMS 2122122-01) with or without either Pioglitazone or Lovastatin for one month. Plasma samples were obtained at Day 0, 20, 40, 47, 54, 61 and 68 days. Liver biopsies were obtained on Day 40 and Day 68. Biopsies were conducted over two days; 2 animals from each group were biopsied per day.
In order to ascertain if the effects seen were a species-specific effect, we studied the treatment of MTP inhibitors either alone or in conjunction with Pioglitazone or Lovastatin in hyperlipidemic bonnet macaques. These animals were fed ad libitum with a WD for 40 days and then subsequently treated with MTP inhibitors for one month. […] These studies indicate that western diet increases plasma cholesterol and that these increases can be abrogated by treatment with an MTP inhibitor.

The test system of series [2] is mice fed western diet. Description: MTPi with or without pioglitazone or lovastatin in mice fed western diet for five weeks (Example III). Particulars: for cellular cholesteryl esters (liver) / hepatic free cholesterol / hepatic triglycerides: MTPi vs control. The procedure:
FIGS. 7a and 7b. Mice were fed western diet for five weeks. […] Livers were collected and used to measure MTP activity (A), triglyceride (B), total cholesterol (C), free cholesterol (D), esterified cholesterol (E) and free fatty acids (F).
FIGS. 8a and 8b. Plasma was obtained from animals described in FIG. 7 and used to measure triglyceride (A) and cholesterol (B) in apoB-lipoproteins. In addition, HDL cholesterol (C), plasma free fatty acids (D), ALT (E), and AST (F) levels were measured.

Series [3] relates to C57Bl/6J mice fed western diet. Description: MTP inhibitor CP-346086 with or without lovastatin or WY14643 in western diet fed mice: plasma/hepatic lipids, AST/ALT. The class given is in vivo. The settings on record: for hepatic cholesterol (total, free and esterified): co-drug given with MTPi, compared to MTPi group. The procedure: FIGS. 4a and 4b. Effect of MTP inhibitor (CP-34086) on plasma lipids and lipoproteins in C57Bl/6J mice fed western diet ad libitum for 8 weeks. MTP inhibitor solubilzed in DMSO was administered orally for one week (15 mg/kg/day) along with either DMSO (MTPi), lovastatin (50 mg/kg/day), or WY14643 (10 mg/kg/day). Control mice were gavaged with DMSO only.
FIGS. 5a and 5b. Liver samples from FIG. 4 were used to measure MTP activity (A) and hepatic lipids (B-E). Stars on MPTi group represent comparison between Control and MTPi groups.
Control group (n=4) received daily oral gavage of DMSO alone. MTPi group received 15 mg/kg/day MTP inhibitor CP-346086 (MTPi) once daily. […] Plasma total and HDL cholesterol were unaffected by MTPi. Combined treatment of MTPi and lovastatin decreased plasma LDL cholesterol. […] Next, we measured changes in plasma hepatic enzymes (FIGS. 4G-H). […] These studies indicate that apart from lowering plasma triglyceride, MTPi enhances plasma AST/ALT and these increases can be avoided by the co-administration of lovastatin.

The test system of series [4] is Reversa mice. Particulars: for plasma cholesterol / plasma triglycerides: MTP deficient (plpC) Reversa mice, oral 30 days. The procedure:
FIG. 11. Reversa animals were injected with plpC every other day for one week. Lovastatin, T-090317 and WY14643 were administered by oral gavage everyday for 30 days after the first injection. Animals were sacrificed on day 30 and plasma and livers were harvested and analyzed. * represent comparison to PBS injected animals and # represent comparisons to plpC control.
Animals: Mttp^tm2Sgy LdIr^tm1Her Apob^tm2Sgy Tg(Mx1-cre)1Cgn/J mice (Reversa) (stock number 004192) were obtained from Jackson Laboratories. Male reversa mice were used to study the effect of mttp gene deletion on plasma and tissue lipids. These animals are transgenic for apolipoprotein B, LDLR^−/− and floxed at exon 1 of the mttp locus. In addition, these mice express cre recombinase under the control of the Mx1 promoter, which is induced after intraperitoneal injection of polyinosinic polycytidylic ribonucleic acid (plpC—Sigma) in the liver, spleen and intestine. Injection of plpC activates the cre recombinase and deletes the mttp gene in the liver and intestines. Reversa mice were injected with either PBS or plpC. Mice injected with plpC were orally gavaged with DMSO (Sigma-Aldrich D8418), DMSO+Lovastatin (50 mg/kg/day) (Calbiochem 438186), DMSO+T0901317 (50 mg/kg/day) (Calbiochem 575310), or DMSO+WY14643 (10 mg/kg/day) (Calbiochem 681725). Mice injected with plpC were also injected with either PBS or Ω-3 fatty acids (SUNY Downstate Medical Center). All animals were given supplemental treatments for 30 days.
All animals were kept in 07:00-19:00 h lighting schedule. […] Food was withdrawn 16 h before the sacrifice of the mice. On the day of the experiment, mice were anesthetized and blood was collected from the heart. Liver was collected, washed in ice-cold PBS, cut into small pieces and used for lipid extraction, histological staining, to measure different protein activities/quantities and for mRNA analysis. Lipids were extracted from the tissue homogenates following the Bligh and Dyer method. Triglyceride (Infinity TM Triglyceride, TR22421) and total cholesterol (Infinity TM Cholesterol, TR13421) levels in the tissues were determined using commercial kits (Thermo Scientific). Free cholesterol and free fatty acid levels were measured using kits from Wako Chemicals (Germany). Esterified cholesterol was calculated by subtracting the free cholesterol from the total cholesterol.
To determine whether accumulation of hepatic triglyceride and free cholesterol is related to increases in plasma AST/ALT, we sought to reduce these lipids using different chemical compounds of known physiologic effects. Mice injected with plpC were orally gavaged with DMSO, DMSO+Lovastatin (50 mg/kg/day), DMSO+T0901317 (50 mg/kg/day), or DMSO+WY14643 (10 mg/kg/day). Lovastatin (Lova), an HMG-CoA reductase (HMGR) inhibitor, and T0901317 (T0), an LXR agonist, are expected to decrease hepatic free cholesterol by inhibiting endogenous cholesterol synthesis and increasing cholesterol efflux, respectively. WY14643 (WY), a PPARα agonist, increases β-oxidation of fatty acids and lowers hepatic triglycerides.
To evaluate the efficacy of Ω-3 FA in reducing hepatic triglyceride, plpC injected mice were treated with intraperitoneal injection of Ω-3 FA (3 mg/kg/2 day) or Ω-3 FA and Lova.

Where [5] appears, read: WD five weeks, treatment in last week, co-drugs with MTPi.
Setting [6] is: plpC-injected Reversa mice, Lova 50, T0 50, WY 10 mg/kg/day oral or Ω-3 FA 3 mg/kg/2 day ip, vs plpC control.

As for `CCc1ccc(CCOc2ccc(CC3SC(=O)NC3=O)cc2)nc1` (racemic) [pioglitazone, (RS)-5-(4-[2-(5-ethylpyridin-2-yl)ethoxy]benzyl)thiazolidine-2,4-dione], the plasma cholesterol entry in series [1] (WD 40 days) was “no further significant effect”. Besides, the “plasma AST/ALT levels vs baseline and day 40” value in series [1] (WD 40 days, then treatment one month) is reported as “did not show elevated”. Also, in series [1] (co-drugs with MTP inhibitor), the “Hepatic cholesterol, total and free” value was “suppressed”; the “Hepatic triglycerides (biopsies day 40 vs day 68)” value was “no significant difference”. In series [2] (setting [5]), the “cellular cholesteryl esters (liver)” value is listed as “increased”, the hepatic free cholesterol entry is listed as “not seen”, the hepatic triglycerides result was “avoided increases” and the “plasma HDL cholesterol” value is on record as “slightly increased”. Also, the “AST/ALT levels (plasma)” value in series [2] (mouse, in vivo) is “significantly lower”.
`Cc1cccc(Nc2cc(Cl)nc(SCC(=O)O)n2)c1C` [WY14643]: the “plasma AST/ALT” value in series [3] (WD 8 weeks, CP-346086 15 mg/kg/day 1 week ± lovastatin 50 or WY14643 10 mg/kg/day, MTPi vs control, co-drugs vs MTPi) is given as “no significant effect”. In series [3] (WD 8 weeks, WY14643 10 mg/kg/day given along with MTPi, 1 week), the plasma lipids entry is on record as “did not affect”. In series [3], the “hepatic cholesterol (total, free and esterified)” value is on record as “no significant effect”. Moreover, in series [4], the plasma cholesterol result is “no effect” and the plasma triglycerides entry was “no effect”. Moreover, the “hepatic free and total cholesterol” value in series [4] (setting [6]) is “no effect”.
Regarding `CC[C@H](C)C(=O)O[C@H]1C[C@@H](C)C=C2C=C[C@H](C)[C@H](CC[C@@H]3C[C@@H](O)CC(=O)O3)[C@H]21` [lovastatin], the plasma cholesterol entry in series [1] (WD 40 days) was “no further significant effect”. For the same compound, the “Hepatic cholesterol, total and free” value in series [1] (co-drugs with MTP inhibitor) is recorded as “suppressed”. In addition, the “hepatic cholesterol (total, free and esterified)” value in series [3] is on record as “significantly lower”. Also, in series [4], the plasma cholesterol result is on record as “significantly reduced” and the plasma triglycerides result was “no effect”. Further, in series [4] (setting [6]), the “hepatic free and total cholesterol” value is “significantly reduced”; the hepatic triglyceride entry was “no effect”. Besides, in series [2] (setting [5]), the “cellular cholesteryl esters (liver)” value was “increased”, the hepatic free cholesterol result is reported as “not seen”, the hepatic triglycerides entry is reported as “not affected” and the “AST/ALT levels (plasma)” value is given as “significantly lower”. In series [2] (setting [5]), the “plasma HDL cholesterol” value is reported as “slightly increased” and the “plasma free fatty acids” value is reported as “not affected”.
